Like-named read-outs stand apart in the source and are kept apart here. Bridge positions count the residues as written; N and C are the ends. Square brackets hold non-standard residues; d marks the D form. Peptide text beside a SMILES is read from it. S5 = C=CCCC[C@](C)(N)C(=O)O
Experiments:
[1] = Proteolytic stability in human plasma; conditions: pooled human plasma, pH 7.4, 2 μM, 37°C, time points 0, 10, 30, 60, 120 min, LC-MS/MS, duplicate
[2] = tested on: pseudovirus NL4-3ΔEnv-NanoLuc/SARS-CoV-2; conditions: 48 h
[3] = tested on: pseudovirus NL4-3.Luc.R-E-/VSV-G; conditions: 48 h
[4] = tested on: pseudovirus NL4-3ΔEnv-NanoLuc/SARS-CoV-2; conditions: 24 h
[5] = tested on: pseudovirus NL4-3.Luc.R-E-/VSV-G; conditions: 24 h
[6] = reported for the control stapled peptide; cited from earlier work
[7] = α-Helical propensity by CD spectroscopy; assay type: physicochemical; conditions: 0.125 mg/ml peptide in 10 mM PBS, 25°C, 185 to 260 nm, calculated with CDNN software
[8] = tested on: SARS-CoV-2 (US_WA-1/2020); assay type: cell-based

CC(C)[N+](C)(CCOC(=O)C1c2ccccc2Oc2ccccc21)C(C)C [Propantheline bromide, propantheline bromide]
half-life (T1/2) in human plasma [1]: 8 min

CC(=O)N[C@@H](CC(=O)O)C(=O)N[C@@H](CC(N)=O)C(=O)N[C@@H](CCC(=O)O)C(=O)N[C@@]1(C)CCC/C=C\CCC[C@@](C)(C(=O)N[C@@H](Cc2ccc(O)cc2)C(=O)N[C@@H](Cc2c[nH]cn2)C(=O)N[C@@H](CC(C)C)C(=O)N[C@@]2(C)CCC/C=C\CCC[C@@](C)(C(=O)N[C@H](C(N)=O)C(C)C)NC(=O)[C@H](CC(N)=O)NC(=O)[C@H](Cc3ccccc3)NC(=O)[C@H](Cc3ccccc3)NC2=O)NC(=O)[C@H](Cc2ccccc2)NC(=O)[C@H](Cc2c[nH]c3ccccc23)NC(=O)[C@H](CCC(N)=O)NC1=O [StRIP16] (Ac-DNE[S5]QWF[S5]YHL[S5]FFN[S5]V-NH2; staple (Z) 4-8, 12-16)
IC50 [2]: > 43.5 µM
IC50 [3]: > 43.5 µM
IC50 [4]: > 43.5 µM
IC50 [5]: > 43.5 µM
% helicity [6]: 38%

CC[C@H](C)[C@H](NC(=O)[C@@H](NC(C)=O)[C@@H](C)O)C(=O)N[C@@H](CCC(=O)O)C(=O)N[C@@H](CCC(=O)O)C(=O)N[C@@H](CCC(N)=O)C(=O)N[C@@H](C)C(=O)N[C@@H](CCCCN)C(=O)N[C@H](C(=O)N[C@@]1(C)CCC/C=C\CCC[C@@](C)(C(=O)N[C@@H](CC(N)=O)C(=O)N[C@@H](Cc2c[nH]cn2)C(=O)N[C@@H](CCC(=O)O)C(=O)N[C@@H](C)C(=O)N[C@@H](CCC(=O)O)C(=O)N[C@@H](CC(=O)O)C(=O)N[C@@H](CC(C)C)C(=O)N[C@@H](Cc2ccccc2)C(=O)N[C@@H](Cc2ccc(O)cc2)C(=O)N[C@@H](CCC(N)=O)C(=O)N[C@@]2(C)CCC/C=C\CCC[C@@](C)(C(=O)N[C@@H](Cc3c[nH]c4ccccc34)C(=O)N[C@@H](CC(N)=O)C(N)=O)NC(=O)[C@H](C)NC(=O)[C@H](CC(C)C)NC(=O)[C@H](CO)NC2=O)NC(=O)[C@H](CCCCN)NC(=O)[C@H](CC(=O)O)NC(=O)[C@H](CC(C)C)NC1=O)[C@@H](C)O [NYBSP-1] (Ac-TIEEQAKT[S5]LDK[S5]NHEAEDLFYQ[S5]SLA[S5]WN-NH2; staple (Z) 9-13, 24-28)
% α-Helicity (185-260 nm) [7]: 94%
IC50 [2]: 2.2 ± 0.14 µM
IC50 [3]: > 27.5 µM
IC50 [4]: 4.1 ± 0.26 µM
IC50 [5]: > 27.5 µM
IC100 [8]: 17.2 µM
